Experiments:
[1] = Pharmacokinetics of DPB after oral DPB or NaDPB and IV NaDPB in Beagle dogs; assay type: in vivo; settings: for AUC(0-t): Beagle, 75 mg/kg
Description: (§1) In accordance with the present invention, pharmacokinetic parameters were calculated using standard non-compartmental methods, as implemented in WinNonlin™ 4.0.1. […] The mean, SD and CV (%) were used to calculate the AUC0-t (μg·h/mL), C. (μg/ml) (the maximum observed concentration), Tmax (hours) (the time to reach that peak concentration) and Kel (the elimination rate constant) for each animal and each analyte.
(§2) AUC0-t was calculated using the linear trapezoidal rule, which employs an approximate integration formula. The area of each trapezoid was calculated, and the sum of all the areas of all the trapezoids yielded an estimate of the true area under the curve. (See, Gibaldi et al. Pharmacokinetics. 2nd Ed. Marcel Dekker, Inc., 1982; Yeh et al., A comparison of numerical integrating algorithms by trapezoidal, lagrange, and spline approximations. J. Pharmacokinet Biopharm. 6: 79 (1978), the disclosure of which is herein incorporated by reference.) Cmax and Tmax were then determined for each concentration vs. time profile. Elimination rate constant (Kel) was calculated using regression analyses on the natural log (ln) of plasma concentration values (y) versus time (x).
We examined the delivery of DPB to the vascular compartment by administrating directly DPB and compared it with the sodium salt of DPB in dogs. This study compared the pharmacokinetics of DPB after oral administration of a single dose of DPB (75 mg/kg) or sodium salt of DPB (75 mg/kg) in Beagle dogs. Twenty-eight Beagle dogs were administered DPB and sodium salt of DPB by a single oral gavage (n=24). Blood samples were obtained pre-dose and 0.5, 1, 2, 3, 4, 6, 12, 18, 24, 36 and 48 hours after dosing. DPB was quantified in plasma using HPLC (LLOQ=0.25 μg/mL).
(§3) We calculated AUC0-t for DPB at various times (24, 36 and 48 hours) after oral administrations of DPB and sodium salt of DPB.

[2] = Pharmacokinetics of DPB after oral DPB or NaDPB and IV NaDPB in Sprague-Dawley rats; assay type: in vivo; settings: for AUC(0-t): Sprague-Dawley, 150 mg/kg; for AUC(0-t) / Cmax / Tmax / half-life / bioavailability: rat, in vivo; for bioavailability: read-out: F (absolute bioavailability)
Description: as §1, §2
We examined the delivery of DPB to the vascular compartment by administrating directly DPB and compared it with the sodium salt of DPB. This study compared the pharmacokinetics of DPB after oral administration of DPB (150 mg/kg) and sodium salt of DPB (150 mg/kg) in rats. Fifty-four rats were administered DPB and sodium salt of DPB by a single oral gavage (n=54). Blood samples were obtained (approximately 0.5 mL each) were collected following each treatment from animal via the jugular vein. Blood samplings from groups of 3 rats/sex/time point were collected at various times after dosing, in order to provide the complete time-points of pre-dose, 0, 0.5, 1, 2, 3, 4, 6, 12, 18, 24, 36 and 48 hours after dosing. Each blood sample was collected into a tube containing lithium heparin and the samples were spun in a refrigerated centrifuge. The resultant plasma was stored at −80° C. prior to analysis. DPB was quantified in plasma using HPLC (LLOQ=0.25 μg/mL).
as §3

[3] = Brain concentration of DPB after oral DPB or NaDPB and IV NaDPB in Sprague-Dawley rats; assay type: in vivo; settings: for concentration at 18 h / concentration at 24 h / concentration at 36 h / concentration at 48 h: rat, in vivo
Description: In this study, we measured the brain concentration of DPB. Brains were collected as soon as possible after euthanasia from each rat. They were stored in a freezer at −80° C. prior to determination of DPB brain tissue concentrations. Table 6 summarizes the brain concentrations of DPB after oral administration of DPB and sodium salt of DPB in Sprague-Dawley rats.

[4] = tested on: seizure induced either by electroshock or pentylenetetrazole; settings: mice, given by stomach tube; cited from earlier work
in vivo = settings: dog, analyte MMMDPB
Description: as §1, §2
Blood samples were obtained pre-dose and 0.25, 0.5, 1, 2, 3, 4, 6, 9, 12, 15, 18, and 24 hours after dosing. Venous blood (˜1 mL) were drawn and collected in lithium heparin (anticoagulant). Blood samples were spun in a refrigerated centrifuge and plasma were stored at −80° C. prior to analysis. […] Calibration curves were obtained using a weighted (1/C^2) least squares linear regression analysis of peak area ratio (analyte/internal standard) versus the nominal concentration of the calibration standards. Concentrations were obtained by interpolation from the run defined calibration curve. Regressions and figures were generated by PE Sciex Analyst Version 1.2 software.
Plasma samples were thawed and subjected to solid phase extraction with 2 mL acetonitrile prior to HPLC method with Tandem Mass Spectrometry Detection. Chromatographic conditions were performed as followed: […]

[5] = dog, in vivo, po, oral 75 mg/kg, analyte DPB in plasma, read-out: AUC0-t
[6] = dog, in vivo, po, oral 75 mg/kg, analyte DPB, read-out: AUC0-24
[7] = dog, in vivo, po, oral 75 mg/kg, analyte DPB, read-out: AUC0-36
[8] = dog, in vivo, po, oral 75 mg/kg, analyte DPB, read-out: AUC0-48
[9] = dog, in vivo, oral 75 mg/kg, analyte DPB in plasma
[10] = female, po, Sprague-Dawley rats, female, oral 150 mg/kg, analyte DPB in plasma, read-out: AUC0-t
[11] = female, po, female, oral 150 mg/kg, analyte DPB, read-out: AUC0-36
[12] = female, po, female, oral 150 mg/kg, analyte DPB, read-out: AUC0-48
[13] = male, po, Sprague-Dawley rats, male, oral 150 mg/kg, analyte DPB in plasma, read-out: AUC0-t
[14] = male, po, male, oral 150 mg/kg, analyte DPB, read-out: AUC0-36
[15] = male, po, male, oral 150 mg/kg, analyte DPB, read-out: AUC0-48
[16] = Sprague-Dawley rats, female, oral 150 mg/kg, analyte DPB in plasma
[17] = Sprague-Dawley rats, male, oral 150 mg/kg, analyte DPB in plasma
[18] = dog, in vivo, IV infusion 75 mg/kg, analyte DPB in plasma
[19] = oral 75 mg/kg, relative to oral DPB free acid
[20] = Sprague-Dawley rats, female, IV infusion 150 mg/kg, analyte DPB in plasma
[21] = Sprague-Dawley rats, male, IV infusion 150 mg/kg, analyte DPB in plasma

## O=C1NC(=O)C(c2ccccc2)(c2ccccc2)C(=O)N1 [DPB, 5,5-diphenyl barbituric acid, reference compound]
[1]; [5]
  AUC(0-t): 222 µg·h/mL
[1]; [6]
  AUC(0-t): 231 µg·h/mL
[1]; [7]
  AUC(0-t): 234 µg·h/mL
[1]; [8]
  AUC(0-t): 234 µg·h/mL
[1]; [9]
  Cmax: 18.7 µg/mL
  Tmax: 6.5 h
  half-life: 4 h
[2]; [10]
  AUC(0-t): 1950 µg·h/mL
[2]; [11]
  AUC(0-t): 1600 µg·h/mL
[2]; [12]
  AUC(0-t): 1950 µg·h/mL
[2]; [13]
  AUC(0-t): 776 µg·h/mL
[2]; [14]
  AUC(0-t): 757 µg·h/mL
[2]; [15]
  AUC(0-t): 776 µg·h/mL
[2]; [16]
  Cmax: 74 µg/mL
  Tmax: 12 h
  half-life: 33.2 h
[2]; [17]
  Cmax: 38.3 µg/mL
  Tmax: 6 h
  half-life: 6.6 h
[3]; male, oral 150 mg/kg, 48 hr
  Mean brain concentration of DPB: BQL
[4]
  protection from seizure: effective

## COCN1C(=O)NC(=O)C(c2ccccc2)(c2ccccc2)C1=O [MMMDPB, monomethoxymethyl-5,5-diphenyl barbituric acid, reference compound]
In vivo; Beagle, Beagle dogs, oral 30 mg/kg vs IV 15 mg/kg, read-out: F (absolute bioavailability)
  bioavailability: 107%
In vivo; Beagle, po, 30 mg/kg, mean oral bioavailability of MMMDPB, Beagle dogs, oral 30 mg/kg, mean
  bioavailability: 107%
In vivo; Beagle, po, 30 mg/kg, oral bioavailability of MMMDPB, range, Beagle dogs, oral 30 mg/kg, range over animals
  bioavailability: 43 to 177%

## O=C1NC(=O)C(c2ccccc2)(c2ccccc2)C(=O)N1.[Na] [NaDPB, sodium 5,5-diphenyl barbiturate]
[1]; dog, in vivo, iv, IV infusion 75 mg/kg, analyte DPB in plasma, read-out: AUC0-t
  AUC(0-t): 1570 µg·h/mL
[1]; dog, in vivo, iv, IV infusion 75 mg/kg, analyte DPB, read-out: AUC0-24
  AUC(0-t): 1410 µg·h/mL
[1]; dog, in vivo, iv, IV infusion 75 mg/kg, analyte DPB, read-out: AUC0-36
  AUC(0-t): 1600 µg·h/mL
[1]; dog, in vivo, iv, IV infusion 75 mg/kg, analyte DPB, read-out: AUC0-48
  AUC(0-t): 1620 µg·h/mL
[1]; [5]
  AUC(0-t): 883 µg·h/mL
[1]; [6]
  AUC(0-t): 883 µg·h/mL
[1]; [7]
  AUC(0-t): 962 µg·h/mL
[1]; [8]
  AUC(0-t): 962 µg·h/mL
[1]; [18]
  Cmax: 95.7 µg/mL
  Tmax: 0.5 h
  half-life: 6 h
[1]; dog, in vivo, oral 75 mg/kg vs IV 75 mg/kg, read-out: absolute bioavailability of DPB
  bioavailability: ~58%
[1]; [9]
  Cmax: 54.2 µg/mL
  Tmax: 7.8 h
  half-life: 5.9 h
[1]; [19]
  AUC0-t for DPB, increase versus oral DPB: ~4 fold
  Cmax for DPB, increase versus oral DPB: ~3 fold
[2]; Sprague-Dawley rats, female, oral 150 mg/kg, relative to oral DPB free acid
  AUC0-t for DPB, increase versus oral DPB: ~2 fold
[2]; female, iv, Sprague-Dawley rats, female, IV infusion 150 mg/kg, analyte DPB in plasma, read-out: AUC0-t
  AUC(0-t): 4330 µg·h/mL
[2]; female, iv, female, IV infusion 150 mg/kg, analyte DPB, read-out: AUC0-36
  AUC(0-t): 4760 µg·h/mL
[2]; [10]
  AUC(0-t): 4040 µg·h/mL
[2]; [11]
  AUC(0-t): 3130 µg·h/mL
[2]; [12]
  AUC(0-t): 4040 µg·h/mL
[2]; male, iv, Sprague-Dawley rats, male, IV infusion 150 mg/kg, analyte DPB in plasma, read-out: AUC0-t
  AUC(0-t): 4030 µg·h/mL
[2]; male, iv, male, IV infusion 150 mg/kg, analyte DPB, read-out: AUC0-36
  AUC(0-t): 4610 µg·h/mL
[2]; male, iv, male, IV infusion 150 mg/kg, analyte DPB, read-out: AUC0-48
  AUC(0-t): 5690 µg·h/mL
[2]; [13]
  AUC(0-t): 3410 µg·h/mL
[2]; [14]
  AUC(0-t): 2720 µg·h/mL
[2]; [15]
  AUC(0-t): 3410 µg·h/mL
[2]; [20]
  Cmax: 174 µg/mL
  Tmax: 2 h
  half-life: 26.8 h
[2]; [16]
  Cmax: 104 µg/mL
  Tmax: 12 h
  half-life: 32.9 h
[2]; Sprague-Dawley rats, female, oral 150 mg/kg, analyte DPB
  bioavailability: 87.7%
[2]; [21]
  Cmax: 184 µg/mL
  Tmax: 1 h
  half-life: 24.2 h
[2]; [17]
  Cmax: 86.9 µg/mL
  Tmax: 18 h
  half-life: 17.6 h
[2]; Sprague-Dawley rats, male, oral 150 mg/kg, analyte DPB
  bioavailability: 70.6%
[3]; female, IV infusion 150 mg/kg
  concentration at 18 h: 36100 ng/g
  concentration at 24 h: 40700 ng/g
  concentration at 36 h: 21900 ng/g
[3]; female, oral 150 mg/kg
  concentration at 24 h: 25800 ng/g
  concentration at 36 h: 28400 ng/g
[3]; female, oral 150 mg/kg, 48 hr
  concentration at 48 h: 14900 ng/g
[3]; male, IV infusion 150 mg/kg
  concentration at 18 h: 41200 ng/g
  concentration at 24 h: 35600 ng/g
  concentration at 36 h: 27500 ng/g
[3]; male, oral 150 mg/kg
  concentration at 24 h: 29900 ng/g
  concentration at 36 h: 23600 ng/g
[3]; male, oral 150 mg/kg, 48 hr
  concentration at 48 h: 9460 ng/g

## COCN1C(=O)NC(=O)C(c2ccccc2)(c2ccccc2)C1=O.[Na] [NaMMMDPB, sodium monomethoxymethyl-5,5-diphenyl barbiturate]
In vivo; in vivo, 30 mg/kg, oral 30 mg/kg vs IV 15 mg/kg, read-out: F (absolute bioavailability)
  bioavailability: 60%
In vivo; in vivo, po, 30 mg/kg, mean oral bioavailability of MMMDPB, oral 30 mg/kg, mean
  bioavailability: 60%
In vivo; in vivo, po, 30 mg/kg, oral bioavailability of MMMDPB, range, oral 30 mg/kg, range over animals
  bioavailability: 34 to 99%

From patent publication US8076346B2 (priority 2000, dated 2011)
